According to patent US20160082066A1, “Method Use of Polymethoxyflavones (PMFs) in Body Composition Management” (priority 2014, published 2016):

Experiments:
[1] = system: 3T3-L1 preadipocytes; assay: Oil Red O lipid accumulation in differentiating 3T3-L1 preadipocytes; assay type: cell-based; conditions: DMI 2 days, then insulin medium with substance 8 days; absorbance at 520 nm; FIG. 1-3
Description: Ten days after the initiation of differentiation, lipid accumulation was measured by Oil Red O staining.
3T3-L1 preadipocytes were incubated with DMI (DMEM with IBMX, DEX and insulin) for two days, and then replaced with DMEM medium containing insulin with or without ECG, EGCG and PMFs at indicated concentrations, respectively for 8 days. The 3T3-L1preadipocytes were stained with Oil Red O and photographed. Lipid content was extracted from Oil Red O stained cells by 2-propanol and quantified with spectrophotometric analysis at 520 nm.
3T3-L1 preadipocytes were incubated with DMI (DMEM with IBMX, DEX and insulin) for two days, and then replaced with DMEM medium containing insulin with or without ECG, EGCG and PMFs at indicated concentrations, respectively for 8 days. The 3T3-L1preadipocytes were stained with Oil Red 0. Lipid content was extracted from Oil Red O stained cells by 2-propanol and quantified with spectrophotometric analysis at 520 nm.
3T3-L1 preadipocytes were incubated with DMI (DMEM with IBMX, DEX and insulin) for two days, and then replaced with DMEM medium containing insulin with or without Lychee extracts and PMFs, or in combination at indicated concentrations, respectively for 8 days. […] Lipid content was extracted from Oil Red O stained cells by 2-propanol and quantified with spectrophotometric analysis at 520 nm.

[2] = system: high-fat diet-induced obesity in mice; conditions: cited from earlier work
[3] = system: 3T3-L1 preadipocytes; conditions: tissue culture; cited from earlier work
[4] = EGCG stand alone; young, healthy adults; cited from earlier work
[5] = target: T1, catechol-O-methyltransferase (Homo sapiens, UniProt P21964); conditions: cited from earlier work
T1 sequence (P21964 1-271): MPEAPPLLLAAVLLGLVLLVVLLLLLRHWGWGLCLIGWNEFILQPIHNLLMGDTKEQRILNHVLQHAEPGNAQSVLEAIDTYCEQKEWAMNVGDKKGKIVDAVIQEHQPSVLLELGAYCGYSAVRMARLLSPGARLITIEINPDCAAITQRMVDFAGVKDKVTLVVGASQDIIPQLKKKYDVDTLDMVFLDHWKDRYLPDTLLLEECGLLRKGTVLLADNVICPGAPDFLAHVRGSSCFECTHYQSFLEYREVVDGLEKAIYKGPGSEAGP

O=C(O[C@@H]1Cc2c(O)cc(O)cc2O[C@@H]1c1ccc(O)c(O)c1)c1cc(O)c(O)c(O)c1 [ECG, epicatechin gallates]
lipid accumulation in differentiated adipocytes (Oil Red O staining) [1]: decreased only slightly

COc1ccc(-c2cc(=O)c3c(OC)c(OC)c(OC)c(OC)c3o2)cc1OC [nobiletin]
obesity and insulin resistance [2]: alleviating obesity and insulin resistance | differentiation of 3T3-L1 preadipocytes into adipocytes [3]: potently suppressing

O=C(O[C@@H]1Cc2c(O)cc(O)cc2O[C@@H]1c1cc(O)c(O)c(O)c1)c1cc(O)c(O)c(O)c1 [EGCG, epigallocatechin gallates]
resting metabolic rate (RMR) and thermal effects of feeding (TEF) [4]: would not increase | lipid accumulation in differentiated adipocytes (Oil Red O staining) [1]: decreased only slightly | catechol-O-methyltransferase activity [5]: inhibits
